Measured values as given in patent US10238113B2, “Method for protecting plants from stress and senescence” (BEN-GURION UNIVERSITY OF THE NEGEV RESEARCH AND DEVELOPMENT …, priority 2008, dated 2019).

What was measured:
[1] = system: leaf discs cut from Col and Atxdh mutants rosette leaves; assay: Leaf discs treated with purine catabolites under dark-induced stress, remaining chlorophyll; assay type: in vivo, Arabidopsis thaliana; details: for protection from chlorophyll degradation: 0.1 mM, applied 2 h after 48 h dark treatment, +/- allopurinol, Col and Atxdh mutants
Procedure: (§1) FIG. 8a: xanthine (1 mM) in the presence or absence of allopurinol (1 mM, +/−Allo), was applied for 48 h to leaf discs placed in the dark and photographed 24 h after being transferred to 16 h light/8 h dark regime (left upper panel). Remaining chlorophyll, xanthine, allantoin and allantoate were determined in leaf discs sampled at the beginning of the experiment (light) or after 72 h (as described above) without xanthine (dark). FIG. 8b: allantoin or allantoate (0.1 mM) in the presence or absence of allopurinol (1 mm, +/−Allo) was applied to leaf discs for 2 h in the dark after keeping the discs in the dark for 48 h. Discs were photographed 24 h after being transferred to 16 h light/8 h dark regime (left upper panel). Leaf discs were washed twice before sampling for xanthine, allantoin and allantoate determination (right and bottom panels). Bars show mean±SEM (n=16).
Cell death was visualized in leaves sampled from dark stressed and control unstressed plants, by lactophenol-trypan blue staining followed by destaining in saturated chloral hydrate (Koch E. and Slusarenko A. 1990 Plant Cell 2, 437-445). Total chlorophyll content was measured in extracts of the fully expanded leaves as described before (Brychkova et al., 2007, ibid). The values for remaining chlorophyll content in leaf discs were determined as the amount of chlorophyll per disc divided by the amount of chlorophyll per untreated control and expressed as a percentage. The severity of leaf damage after dark stress was as follows: 1, no damage; 2, <30%; 3, 30-50%; 4, >50% of the leaf area damaged. The average leaf damage was then multiplied by the total number of damaged leaves to determine the damage level. Means±SEM for each treatment are presented.
The dark-induced loss of chlorophyll and the accelerated cell death during recovery may be due to the accumulation of excess oxypurines (FIG. 5a) or to the lack of a protective environment provided by ureides (FIGS. 5b and 5c) or both. To examine this directly, leaf discs cut from Col and Atxdh mutants rosette leaves were treated with xanthine for 48 h in the dark and were sampled after 24 h in the light. […] The observations indicate that ureides may protect chlorophyll from degradation during dark treatment and the recovery period. To elucidate the role of allantoin and allantoate directly, leaf discs were treated with 0.1 mM allantoin or allantoate. […] Importantly, the protection by the ureides was afforded in spite of the significant accumulation of xanthine in allopurinol-treated Col plants and Atxdh mutants (FIG. 8b).

[2] = system: leaf discs of Col and Ri plants; assay: NBT-O2- staining of leaf discs treated with allantoin or allantoate; assay type: in vivo, Arabidopsis thaliana; details: 0.1 mM for 2 h after 24 h dark; Col lines
Procedure: (§2) FIGS. 9a-9c show reactive oxygen species (ROS) accumulation in the presence of allantoin and allantoate in Arabidopsis wild-type (Col) and xdh1 RNA interference (Ri) lines. FIG. 9a left panel: leaf discs removed from Col plants placed for 24 h in the dark in the presence or absence of allantoin or allantoate (0.1 mM) and then washed and treated with H2O2 (0, 20, 50 mM) for an additional 6 h in the dark. Right panel: remaining chlorophyll determined 24 h after the disc were transferred to a 16 h light/8 h dark regime. Bars show mean±SEM (n=16). […] Total H2O2 relative production (right insert) was quantified in leave discs kept in the dark for 24 h and then treated with allantoin or allantoate for additional 2 h in the dark, using DAB staining Results are from two independent experiments. Error bars indicate SE (n=16). The lower case letters (a, b) indicate P<0.001 for the differences within treatment between ecotypes. […] Leaf discs were treated and analyzed as in FIG. 9b above. Total relative superoxide production was quantified in leaf discs from 2 independent experiments. […]
(§3) Nitroblue tetrazolium (NBT) O2^− staining of leaves was performed essentially according to Jabs T. et al. (1996 Science 273, 1853-1856) and Fryer M. J. et al. (2002 J Exp Bot 53, 1249-1254). […] NBT and DAB stained leaves and leaf discs were quantified using NIH Image Software (Version 1.6). […]

[3] = system: leaf discs of Col and Ri plants; assay: DAB-H2O2 staining of leaf discs treated with allantoin or allantoate; assay type: in vivo, Arabidopsis thaliana; details: 0.1 mM for 2 h after 24 h dark
Procedure: as §2, §3

tomato leaf discs = assay: Allantoin application to tomato leaf discs, chlorophyll degradation; assay type: in vivo; details: 0.1 mM and 0.5 mM allantoin; discs 2 days dark then 2 days light
Parsley leaf discs = assay: Allantoin application on senescence in parsley leaf discs exposed to dark stress, chlorophyll content; assay type: in vivo
Procedure: FIG. 14 relates to the influence of allantoin application on senescence in parsley leaf discs exposed to dark stress. Parsley leaf discs were kept for 2 days in the light and then transferred to the dark for additional 2 days with or without the addition of 0 to 10 mM allantoin. CL—control undetached leaves in the light.
Reference is also made to FIG. 14 showing that allantoin application prevents leaf spoilage in Parsley. Parsley leaf discs were kept for 2 days in the light and then for 2 days in the dark with or without the addition of 0 to 10 mM allantoin. Undetached leaves kept in the light served as control (CL). The influence of allantoin application on senescence in parsley was examined by measuring the chlorophyll content relative to the content in the control undeteched leaves.

Col wild type plants = assay: Xanthine determination in allopurinol-treated leaves/leaf discs during dark stress; assay type: in vivo, Arabidopsis thaliana; details: allopurinol applied to wild type plants
Procedure: as §1
Ureides were extracted from leaves with 80% ethanol and determined according to Vogels G. D. and Van Der Drift C. (1970 Anal Biochem 33, 143-157) using allantoic acid and allantoin as references. Six samples were analyzed and averaged for each data points. […] Hypoxanthine/xanthine were determined by high performance liquid chromatography (HPLC) using a 100×2.1 mm ID, ODS-Hypersil (5 μm) column. […] The hypoxanthine and xanthine were detected using standards retention time and UV absorption spectra ratio at 249 nm and 267 nm. […]

| Structure (SMILES) | protection from chlorophyll degradation [1] | NBT staining (superoxide) [2] | reduction in DAB staining intensity (H2O2) [3] [fold] | also measured |
| --- | --- | --- | --- | --- |
| NC(=O)NC(NC(N)=O)C(=O)O [allantoate] | protected the treated leaf discs from chlorophyll degradation | significantly reduced staining | 2 |  |
| NC(=O)NC1NC(=O)NC1=O (stereo not drawn) [allantoin] | protected the treated leaf discs from chlorophyll degradation | significantly reduced staining | 2 | chlorophyll degradation (tomato leaf discs): delayed the chlorophyll degradation; prevention of chlorophyll loss (chlorophyll content relative to control undetached leaves) (Parsley leaf discs; 0.1-0.5 mM allantoin, 2 days light then 2 days dark): particularly effective in preventing the chlorophyll loss; protection of leaves from chlorophyll degradation and yellowing (Parsley leaf discs; 0.1-10 mM allantoin, summary of parsley and tomato leaf disc results): protects leaves from chlorophyll degradation and yellowing |
| Oc1ncnc2[nH]ncc12 [allopurinol, reference compound] |  |  |  | effect on xanthine-caused reduction in chlorophyll ([1]; allopurinol 1 mM in the presence of 1 mM xanthine, wild type and mutant Ri lines): exacerbated; xanthine accumulation (Col wild type plants): led to xanthine accumulation |
| O=c1[nH]c(=O)c2[nH]cnc2[nH]1 [xanthine] |  |  |  | effect on chlorophyll ([1]; 1 mM xanthine, 48 h in the dark, sampled after 24 h in the light, Col and Ri leaf discs): caused a reduction in chlorophyll |
